Converted amounts (≈) assume the structure as drawn.
Columns and labels:
HepG2 = test: Cytotoxicity against human HepG2 cells; type: functional, cell-based
[1] = Cytotoxicity against human HepG2(2.2.15) cells; type: functional, cell-based

Row | SMILES | IC50 (HepG2) | IC50 [1]
1 | C[C@H]1C=C(C[C@H](O)CCCCCCCCCC[C@@H](O)[C@H]2CCC(=O)O2)C(=O)O1 [ROLLICOSIN] | 0.1 mg/L (≈ 0.252 µM) | 0.021 mg/L (≈ 0.053 µM)
2 | COc1cccc2c1C(=O)c1c(O)c3c(c(O)c1C2=O)C[C@@](O)(C(=O)CO)C[C@@H]3O[C@H]1C[C@H](N)[C@H](O)[C@H](C)O1 [DOXORUBICIN] | – | 0.45 mg/L (≈ 0.828 µM)

Reference: ChEMBL document CHEMBL1159347, “A novel constituent from Rollinia mucosa, rollicosin, and a new approach to develop annonaceous acetogenins as potential antitumor agents” (J Nat Prod, 2003)
